Experiments:
[1] = system: citric acid-induced cough; assay: Citric acid-induced cough in guinea pigs (anti-tussive activity in vivo); set-up: species or system Male Hartley Guinea pigs; conditions: 0.4M citric acid, 30 min pre-treatment; for Treated (incidences of cough): coughs in 13 minutes; for % Inhibition: cough inhibition vs control
Description: Citric acid was nebulized for only one minute to the animals. Coughs were determined by examination of the flow signal and observation of the test animals.
To perform the experiments Male Hartley Guinea pigs weighing between 550, and 750 g were placed into a clear plastic exposure chamber with an internal volume of 6 l. A bias air flow was applied to the chamber at a flow rate of 2 l/min for the duration of the experiment.
An incidence of cough was denoted by a larger than normal inspiration (at least twice normal tidal deflection) followed immediately by a rapid, forceful expiration (more than three times the normal excursion from baseline). A cough was easily distinguished from animal movement, augmented breaths and gasps by close inspection of the data. Because a sneeze and cough have similar flow patterns, they were differentiated by visual observation of the animals.
Test compounds were administered via the IP route, and the pre-treatment time was 30 min. The aerosol was administered to the animals by connecting a small volume ultrasonic nebulizer (AeroSonic model 5000D Devilbis Sumerset, Pa.) to the bias-flow immediately before the exposure chamber inlet. The animals were challenged with 0.4M citric acid aerosol solution. A volume of 2 ml of citric acid solution was placed in the ultrasonic nebulizer. In one minute approximately 0.5 ml of the solution was nebulized to each animal. This has been previously shown to induce the cough reflex. The incidences of cough in 13 minutes (aerosolization time+observation time,) as well as time to onset of the first cough were recorded.

GABA uptake = conditions: in words, from cited literature; cited from earlier work
[2] = system: citric acid-induced cough; assay: Citric acid-induced cough in guinea pigs (anti-tussive activity in vivo); set-up: species or system Male Hartley Guinea pigs; conditions: 0.4M citric acid; for Treated (incidences of cough): coughs in 13 minutes; for % Inhibition: cough inhibition vs control

## O=C(O)C1=CCCN(CCC=C(c2ccccc2)c2ccccc2)C1 [Compound 5, N-(4,4-diphenyl-3-butenyl)-1,2,5,6-tetrahydro-3-pyridinecarboxylic acid]
[1]; 1 mg ip
  Treated (incidences of cough): 15.4
  % Inhibition: 5.79%
[1]; 3 mg ip
  Treated (incidences of cough): 12.4
  % Inhibition: 20.53%
[1]; 30 mg ip
  Treated (incidences of cough): 1
  % Inhibition: 92.48%

## Cc1ccsc1C(=CCCN1CCC[C@@H](C(=O)O)C1)c1sccc1C [(R)-1-[4,4-bis(3-methyl-2-thienyl)-3-butenyl]-3-piperidinecarboxylic acid, reference compound]
GABA uptake
  GABA uptake inhibitory activity: having GABA uptake inhibitory activity

## O=C(O)C1CCCNC1 (centres unmarked) [Compound 2, 3-piperidinecarboxylic acid]
[1]; 20 mg ip
  Treated (incidences of cough): 9.75
  % Inhibition: 28.36%

## O=C(O)[C@@H]1CNCC[C@@H]1O (relative stereo) [Compound 6, cis4-hydroxy-3-piperidinecarboxylic acid]
[1]; 10 mg ip
  Treated (incidences of cough): 16.3
  % Inhibition: 8.21%
[1]; 20 mg ip
  Treated (incidences of cough): 8.6
  % Inhibition: 35.82%

## O=C(O)CC1CCN(CCC=C(c2ccccc2)c2ccccc2)C1 (centres unmarked) [Compound 1, N-(4,4-diphenyl-3-butenyl)-3-pyrrolidineacetic acid]
[1]; 20 mg ip
  Treated (incidences of cough): 7.2
  % Inhibition: 53.13%

## O=C(O)C1=CCCNC1 [Compound 4, 1,2,5,6-tetrahydro-3-pyridinecarboxylic acid]
[1]; 6 mg ip
  Treated (incidences of cough): 7.6
  % Inhibition: 48.30%
[1]; 20 mg ip
  Treated (incidences of cough): 4.75
  % Inhibition: 67.69%
GABA uptake
  GABA uptake inhibitory activity: having GABA uptake inhibitory activity

## O=C(O)[C@@H]1CCCN(CCC=C(c2ccccc2)c2ccccc2)C1 [Compound 3, (R)-N-(4,4-diphenyl-3-butenyl)-3-piperidinecarboxylic acid]
[1]; 1 mg ip
  Treated (incidences of cough): 6.6
  % Inhibition: 49.23%
[1]; 10 mg ip
  Treated (incidences of cough): 2.8
  % Inhibition: 78.46%
[2]; 10 mg po
  Treated (incidences of cough): 8.2
  % Inhibition: 42.25%
[2]; 30 mg po
  Treated (incidences of cough): 8
  % Inhibition: 43.66%
GABA uptake
  GABA uptake inhibitory activity: having GABA uptake inhibitory activity

Reference: patent publication US6121290A, “Use of GABA uptake inhibitors as anti-tussive agents” (SmithKline Beecham Corporation, priority 1998, dated 2000)
